According to patent publication US20240374581A1, “SALT TYPES OF TRICYCLIC TETRAHYDRO ISOQUINOLINE DERIVATIVE” (JIANGSU HENGRUI PHARMACEUTICALS CO., LTD., priority 2021, published 2024):
pIC50: −log10 of the molar value.

Assays:
MCF-7 cells = test: Inhibition of proliferation of MCF-7 cells (ATP method); format: cell-based; details: Homo sapiens, MCF7; 72 h, Cell Titer-Glo; read-out: IC50, inhibitory effect on proliferation of MCF-7 cells
Experimental: This experiment was intended to test the inhibitory effect of the compound disclosed herein on the proliferation of MCF-7 cells by using the ATP method, and to evaluate the in vitro activity of the compound according to the IC50 value.
MCF-7 cells (TCHu74, National Collection of Authenticated Cell Cultures) were seeded into a 96-well plate with an MEM (hyclone, SH30024.01B) medium containing 10% FBS (Gibco, 10099-141), 1% sodium pyruvate (sigma, S8636) and 1% non-essential amino acid (sigma, M7145) at a density of 4,000 cells/well and cultured at 37° C. with 5% CO2. 20 mM stock solution of the compound was prepared, serially diluted with 100% DMSO to a final concentration of 1000×, and then diluted 20-fold with a medium containing 2% FBS. After the cells were cultured for 24 h, the medium was removed. 90 μL of the medium containing 2% FBS and 10 μL of a drug were added to each well, and 10 μL of DMSO was added to the control group. The mixtures were well mixed by gentle shaking. The blank group contained only 100 μL of the medium containing 2% FBS. The cells were cultured in an incubator at 37° C. with 5% CO2 for 72 h, and then 50 μL of mixed Cell Titer-Glo (Promega, G7571) was added to each well. The mixtures were well mixed by shaking and let stand at room temperature for 10 min, and the chemiluminescence signal value was determined. […]

CYP3A4 = CYP3A4 (Homo sapiens (Human), UniProt P08684); test: Time-dependent inhibition of site of metabolism of testosterone in human liver microsome CYP3A4; format: in vitro ADME; details: for pIC50: testosterone site
CYP3A4, sequence (P08684 whole entry): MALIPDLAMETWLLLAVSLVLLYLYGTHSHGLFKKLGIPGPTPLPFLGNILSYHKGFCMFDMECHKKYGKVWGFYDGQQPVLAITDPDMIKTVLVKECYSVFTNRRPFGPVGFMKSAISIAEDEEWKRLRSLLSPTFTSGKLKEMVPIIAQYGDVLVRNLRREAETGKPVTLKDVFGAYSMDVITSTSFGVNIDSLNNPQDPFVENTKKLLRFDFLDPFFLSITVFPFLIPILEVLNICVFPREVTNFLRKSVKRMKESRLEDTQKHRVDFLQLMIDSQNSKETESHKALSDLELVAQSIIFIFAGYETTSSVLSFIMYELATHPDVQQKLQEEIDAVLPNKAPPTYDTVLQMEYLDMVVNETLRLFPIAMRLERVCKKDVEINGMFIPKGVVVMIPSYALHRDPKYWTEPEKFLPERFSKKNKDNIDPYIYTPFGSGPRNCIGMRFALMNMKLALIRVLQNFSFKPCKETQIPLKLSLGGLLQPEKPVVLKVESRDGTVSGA
Experimental: • 1. Phosphate buffer (20×PBS, purchased from Sangon); • 2. NADPH (ACROS, A2646-71-1); • 3. Human liver microsome (Corning Gentest, Cat No. 452161, Lot No. 905002, Donor36); • 4. ABI QTrap 4000 LC-MS System (AB Sciex); • 5. ZORBAX Extend-C18, 3×50 mm, 3.5 m (Agilent, USA); • 6. CYP probe substrate (testosterone, Vocko, CAS No. [58-22-0]/75 μM) and positive control inhibitor (verapamil, Adamas Reagent Co., Ltd, Cat No. 25904A).
A 100 mM PBS buffer was prepared. A 0.25 mg/mL microsome solution, a 7.5 mM MgCl2 and a 5 mM NADPH solution were prepared using the buffer. A 30 mM stock solution was diluted with DMSO to obtain 30 mM, 10 mM, 3 mM, 1 mM, 0.3 mM, 0.1 mM, 0.03 mM and 0 mM serial solutions I, which were further diluted 200-fold with phosphate buffer (PBS) to obtain serial test solutions II (150, 50, 15, 5, 1.5, 0.5, 0.15 and 0 μM). A midazolam working solution was diluted with PBS to 15 μM.
The serial test solutions prepared above were well mixed by shaking and aliquoted in 20 μL portions into corresponding reaction plates (+NADPH, TO and -NADPH groups were set). Three parallel tests were set. 40 μL of the liver microsome working solution was added to each 96-well plate. 20 μL of a corresponding substrate solution was added to the TO plate. 20 μL of NADPH was added to the TO plate and +NADPH group. A timer was started, and the plates were incubated in a water bath at 37° C. After 30 min of incubation, the TO plate was taken out, and the reaction was terminated with 250 μL of an internal standard-containing ACN solution. The +NADPH group was supplemented with 20 μL of the corresponding substrate solution, and the −NADPH group was supplemented with 20 μL of the corresponding substrate solution and 20 μL of NADPH. A timer was started, and the plates were incubated in a water bath at 37° C. After 30 min of incubation, the plates were taken out, and the reactions were terminated with 250 μL of an internal standard-containing ACN solution. […]
The IC50 value of the drug for the site of metabolism of testosterone in CYP3A4 was calculated by Graphpad Prism and is shown in Table 8.

hERG potassium channels = hERG potassium channels (Homo sapiens (Human), UniProt Q12809); test: Blocking of hERG potassium currents (automated patch clamp, HEK293-hERG); format: cell-based
hERG potassium channels, sequence (Q12809 whole entry): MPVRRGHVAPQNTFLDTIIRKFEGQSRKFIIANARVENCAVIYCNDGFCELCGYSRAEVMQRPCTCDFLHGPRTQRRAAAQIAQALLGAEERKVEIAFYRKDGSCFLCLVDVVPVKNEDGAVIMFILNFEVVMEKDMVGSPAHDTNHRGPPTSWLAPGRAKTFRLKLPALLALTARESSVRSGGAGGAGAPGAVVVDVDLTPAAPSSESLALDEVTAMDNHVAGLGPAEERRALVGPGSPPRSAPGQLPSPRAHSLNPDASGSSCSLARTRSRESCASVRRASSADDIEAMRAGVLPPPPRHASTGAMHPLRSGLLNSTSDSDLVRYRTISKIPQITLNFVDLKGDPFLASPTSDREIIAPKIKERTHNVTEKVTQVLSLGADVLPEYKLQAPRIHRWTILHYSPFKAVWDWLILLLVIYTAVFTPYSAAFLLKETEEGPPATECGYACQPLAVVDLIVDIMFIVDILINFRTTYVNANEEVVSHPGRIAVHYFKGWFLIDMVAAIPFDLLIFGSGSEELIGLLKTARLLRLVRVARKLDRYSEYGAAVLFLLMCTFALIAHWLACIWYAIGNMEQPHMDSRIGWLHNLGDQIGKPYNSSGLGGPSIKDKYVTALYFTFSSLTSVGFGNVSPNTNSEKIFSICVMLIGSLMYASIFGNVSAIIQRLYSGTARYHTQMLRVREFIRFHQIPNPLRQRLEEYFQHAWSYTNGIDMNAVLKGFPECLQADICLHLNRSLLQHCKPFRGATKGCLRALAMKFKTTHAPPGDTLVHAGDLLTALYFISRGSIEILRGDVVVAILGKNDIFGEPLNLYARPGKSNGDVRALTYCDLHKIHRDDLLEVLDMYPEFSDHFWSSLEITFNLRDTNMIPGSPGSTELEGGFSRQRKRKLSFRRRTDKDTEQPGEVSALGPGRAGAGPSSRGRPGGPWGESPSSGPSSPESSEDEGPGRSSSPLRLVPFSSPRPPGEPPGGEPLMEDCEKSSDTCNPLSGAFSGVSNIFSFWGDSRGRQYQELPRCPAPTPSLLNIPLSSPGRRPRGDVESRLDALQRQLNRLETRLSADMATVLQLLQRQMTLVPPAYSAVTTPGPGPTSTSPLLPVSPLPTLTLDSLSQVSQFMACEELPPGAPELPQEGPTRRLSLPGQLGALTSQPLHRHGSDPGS
Experimental: The blocking of hERG potassium currents by the compound disclosed herein was tested in a stable cell strain transfected with hERG potassium channels using automated patch clamp.
Stably-expressed HEK293-hERG cell strains were subcultured at a density of 1:4 in an MEM/EBSS medium (10% FBS, 400 μg/mL G418, 1% MEM non-essential amino acid solution (100×), and 1% sodium pyruvate solution) and subjected to an automated patch clamp experiment within 48-72 h after the start of the culture. On the day of the experiment, the cells were digested with 0.25% pancreatin, then centrifuged, collected, and resuspended in an extracellular fluid (140 mM NaCl, 4 mM KCl, 1 mM MgCl2, 2 mM CaCl2, 5 mM D-glucose monohydrate, 10 mM Hepes, pH 7.4, 298 mOsm) to form a cell suspension. The cell suspension was placed on the cell bank of the Patchliner instrument that transferred the cells to the chip (NPC-16) using a negative pressure controller. The negative pressure drew individual cells to the wells of the chip. […] Data were recorded and analyzed using the HEAK Patchmaster, HEAK EPC10 patch clamp amplifier (Nanion), Pathliner software and Pathcontrol HTsoftware, and the current of the compound at each concentration and the current of the blank control were analyzed.

[2H]C1([2H])Oc2cc3c(cc2O1)[C@@H](c1ccc(NC2CN(CCCF)C2)cn1)N(CC(F)(F)CO)[C@H](C)C3 [Compound 1, 2,2-Difluoro-3-((5S,7R)-5-(5-((1-(3-fluoropropyl)azetidin-3-yl)amino)pyridin-2-yl)-7-methyl-7,8-dihydro-[1,3]dioxolo[4,5-g]isoquinolin-6(5H)-yl-2,2-d2)propan-1-ol]
pIC50 (MCF-7 cells): 9.54
IC50 Shift (CYP3A4; microsomes): No TDI
pIC50 (CYP3A4; pre-incubation with NADPH 30 min): < 4.52
pIC50 (CYP3A4; pre-incubation without NADPH): < 4.52
pIC50 (hERG potassium channels): < 4.52
